# Measured values as given in patent US8206970B2, “Production of 2-butanol and 2-butanone employing aminobutanol phosphate phospholyase” (Butamax(TM) Advanced Biofuels LLC, priority 2006, dated 2012).
# Tests used:
# [1] = system: Erwinia amino alcohol O-phosphate lyase; test: aminopropanol O-phosphate lyase assay (colorimetric, MBTH); type: biochemical, Erwinia carotovora subsp. atroseptica; conditions: induced cell free extract 100 μg/mL, 10 mM substrate, 37° C.
# Experimental: The PBAD.KA-AT plasmid was transformed into the E. coli TOP10 strain. A 50 mL culture of TOP10/pBAD.KA-AT strain was grown to mid log phase (OD600=0.6) in LB, 100 μg/mL ampicillin media at 37° C. with shaking at 250 rpm. The culture was induced by addition of L-arabinose to a final concentration of 0.1% (w/v), and it was further incubated at 37° C. for 5 h before harvesting by centrifugation. The cell pellet was resuspended in ice cold 50 mM Tris-HCl, pH 8.0, and disrupted by sonication on ice with a Fischer Sonic Model 300 Dismembrator (Fischer, Pittsburgh, Pa.) at 50% power, repeating four cycles of 30 seconds sonication with 60 seconds rest in-between each cycle. Each sonicated sample was centrifuged (15,000×g, 4 min, 4° C.). Clarified cell free extracts were analyzed for protein expression level and amino alcohol O-phosphate lyase activity.
# The aminopropanol O-phosphate lyase assay was performed as described by Jones et al. (1973, Biochem. J. 134:167-182) and G. Gori et al. (1995, Chromatographia 40:336) The formation of propionaldehyde from aminopropanol O-phosphate was assayed calorimetrically with MBTH, which allows the detection of aldehyde formation. The reaction was performed as follows. In a 1 mL reaction, 100 μg cell free extract of E. coli TOP10/pBAD.KA-AT was added to 10 mM DL-1-amino-2-propanol O-phosphate in 100 mM Tris-HCl, pH 7.8, with 0.1 mM PLP. The reaction was incubated at 37° C. for 10 min and 30 min, with an aliquot of 100 μL reaction mixture removed at each time point and mixed with 100 μL of 6 mg/mL MBTH in 375 mM glycine-HCl, pH 2.7. This mixture was incubated at 100° C. for 3 min, cooled on ice for 15-30 s, and 1 mL of 3.3 mg/mL FeCl3.6H2O (in 10 mM HCl) was added, followed by incubation for 30 min at room temperature. The absorbance of the reaction mixture which contains the aldehyde-MBTH adduct, was measured at 670 nm. In the presence of the aminopropanol phosphate substrate, PLP and cell free extract, formation of aldehyde was detected, as indicated by an Abs670 that was higher than the control background of up to 0.3. In the absence of either the substrate or the cell free extract, no aldehyde formation was detected. In the absence of added PLP, somewhat less amount aldehyde was detected, presumably due to the presence of PLP in the cell free extract.
# [2] = system: Erwinia amino alcohol O-phosphate lyase; test: activity of amino alcohol O-phosphate lyase towards aminobutanol O-phosphate and stereoisomers (MBTH derivatization, HPLC); type: biochemical, Erwinia carotovora subsp. atroseptica; conditions: for product yield / activity compared among substrates: same conditions, comparison between substrate isomers; for conversion of substrate to ketone product: 100 μg cell free extract, 10 mM substrate, 0.1 mM PLP, pH 7.8, 37° C. overnight
# Experimental: 2-Butanone can also be detected by derivatization with 3-methyl-2-benzothiazolinone hydrazone (MBTH). An aqueous solution containing 2-butanone is mixed with an equal volume of an aqueous solution of 6 mg/mL MBTH in 375 mM glycine-HCl (pH 2.7) and incubated at 100° C. for 3 min. The resulting MBTH-derivatized samples are analyzed on a 25 cm×4.6 mm (id) Supelosil LC-18-D5 5 μm column (Supelco) using a mobile phase of 55% acetonitrile in water at a flow rate of 1 mL/min. The 2-butanone derivative appears as two peaks (cis and trans isomers) with retention times of approximately 12.3 and 13.3 min and absorbance maxima of 230 and 307 nm.
# The activity of the amino alcohol O-phosphate lyase towards the aminobutanol O-phosphate substrates was studied under the same conditions as described above. The reaction was carried out at 37° C. overnight in a 1 mL reaction that contained 100 μg of cell free extract of E. coli TOP10/pBAD.KA-AT, 10 mM aminobutanol O-phosphate (either the mixture of (R,R)+(S,S) or the mixture of (R,S) +(S,R) isomers described in Example 15) in 100 mM Tris-HCI, pH 7.8, with 0.1 mM PLP. An aliquot of 100 μL reaction mixture was removed and the 2-butanone product was detected using the MBTH derivatization method described in the General Methods. […] Therefore the Erwinia amino alcohol O-phosphate lyase is an aminobutanol phosphate phospho-lyase in addition to an aminopropanol phosphate phospho-lyase.
# The activity of the Erwinia amino alcohol O-phosphate lyase towards various stereoisomers of aminopropanol O-phosphate and aminobutanol O-phosphate was studied under the same conditions as described above. […] Both propanone and butanone products were derivatized by MBTH, and detected by HPLC as described in General Methods.
# [3] = system: Vibrio Fluvialis APT (alanine:acetoin aminotransferase); test: kinetic resolution of 3-amino-2-butanol isomers with the alanine:acetoin aminotransferase; type: biochemical, Vibrio Fluvialis JS17; conditions: 10 mM pyruvate, 10 mM 1:1 isomer mixture, 0.28 mg enzyme, pH 9.0, 24 h room temperature
# Experimental: An analytical method for detection of 3-amino-2-butanol was developed based on the o-phthaldialdehyde derivatization method for amino acid determination reported by Roth [Anal. Chem. 43:880 (1971)]. A 200 μL aliquot of 1 mM 3-amino-2-butanol (mixture of isomers) was mixed with 200 μL of a 50 mM solution of borate (pH 9.5), to which was added 10 μL of 5 μL/mL 2-mercaptoethanol in ethanol and 10 μL of 10 mg/mL o-phthaldialdehdye in ethanol. The solution was incubated at room temperature for 10 min, at which time the derivative was extracted into 200 μL hexane. The hexane was separated from the aqueous solution by decanting, and 10 μL were injected onto a Chiracel OD HPLC column (Daicel Chemical Industries; Fort Lee, N.J.). The column was run isocratically with a mobile phase of 90:10 hexane:isopropanol at a rate of 1 mL/min. The derivatized isomers of 3-amino-2-butanol were detected by absorbance at 340 nm with retention times of approximately 15.7 and 16.8 min [(2S,3S) and (2R,3R)], and 18.4 and 21.9 min [(2R,3S) and (2S,3R)]. […] After 24 h at room temperature, an aliquot was removed and analyzed as described above. […] After 3 h, samples were taken from the reaction and analyzed as described above for acetoin and butanediol. […]
# [4] = system: Klebsiella pneumoniae glycerol dehydratase; test: glycerol dehydratase butanediol dehydratase activity; type: biochemical; conditions: crude cell free extract of KLP23/pSYCO12, 80 mM HEPES pH 8.2, 37° C., 12 μM coenzyme B12, 10 mM substrate
# Source text: Glycerol dehydratase (E.C. 4.2.1.30) and diol dehydratase (E.C. 4.2.1.28), while structurally related, are often distinguished in the art based on various differences that include substrate specificity. […] The recombinant E. coli strain KLP23/pSYCO1 2, comprising Klebsiella pneumoniae genes encoding the multiple subunits of glycerol dehydratase (alpha: SEQ ID NO:145 (coding region) and 146 (protein); beta: SEQ ID NO: 147 (coding region) and 148 (protein); and gamma: SEQ ID NO: 149 (coding region) and 150 (protein)) and Klebsiella pneumoniae genes encoding the multiple subunits of glycerol dehydratase reactivase (large subunit, SEQ ID NO: 151 (coding region) and 152 (protein); and small subunit, SEQ ID NO: 153 (coding region) and 154 (protein)), is described in Emptage et al. U.S. Pat. No. 6,514,733 and in WO 2003089621, which are herein incorporated by reference. A crude, cell free extract of KLP23/pSYCO12 was prepared by methods known to one skilled in the art. […] The formation of 2-butanone was monitored by HPLC (Shodex SH-1011 column and SH-G guard column with refractive index detection; 0.01 M H2SO4 as the mobile phase at a flow rate of 0.5 mL/min and a column temperature of 50° C.; 2-butanone retention time=40.2 min). The rate of 2-butanone formation by the glycerol dehydratase preparation was determined to be 0.4 nmol/min/mg of crude protein.
# [5] = system: B12-independent diol dehydratase from Clostridium glycolicum; conditions: cited from earlier work
molecule,measurement,setting,value
"CC(CN)OP(=O)(O)O (racemic) [Aminopropanol O-phosphate, DL-1-amino-2-propanol O-phosphate]","OD670, 10 min",[1]; PLP (+),1.229
same,"OD670, 30 min",[1]; PLP (+),2.264
same,"OD670, 10 min",[1]; PLP (−),0.855
same,"OD670, 30 min",[1]; PLP (−),1.454
same,product yield / activity compared among substrates,[2],highest activity
"C[C@H](O)[C@@H](C)N [(2S,3R) isomer, (2S,3R)-3-amino-2-butanol]",peak retained,[3],> 90%
C[C@@H](N)COP(=O)(O)O [(R)-2-amino-1-propanol O-phosphate],conversion of substrate to ketone product,[2],converted to propanone
"C[C@@H](N)[C@@H](C)OP(=O)(O)O (mixture of isomers) [mixture of (R,R)+(S,S), (R,R)-3-amino-2-butanol O-phosphate]",conversion of substrate to ketone product,[2],two peaks representing the derivatized 2-butanone isomers were observed
"CC(O)C(C)O (stereo not drawn) [meso-2,3-butanediol]",rate of 2-butanone formation,[4],0.4 nmol/min/mg of crude protein
"CC(O)C(C)O (stereo not drawn) [2,3-butanediol]",activity relative to the activity towards ethanediol,[5],less than 1%
"C[C@H](N)[C@@H](C)O [(2R,3S) isomer, (2R,3S)-3-amino-2-butanol]",peak depleted,[3],95%
"(2R,3S)-3-amino-2-butanol O-phosphate and (2S,3R)-3-amino-2-butanol O-phosphate [mixture of (R,S) +(S,R) isomers]",conversion of substrate to ketone product,[2],two peaks representing the derivatized 2-butanone isomers were observed
same,product yield / activity compared among substrates,[2],higher product yield
C[C@H](N)COP(=O)(O)O [(S)-2-amino-1-propanol O-phosphate],conversion of substrate to ketone product,[2],converted to propanone
same,product yield / activity compared among substrates,[2],much higher
